Laboratory results as given in paper PMC7756582, “Prodrugs of γ‐Alkyl‐Modified Nucleoside Triphosphates: Improved Inhibition of HIV Reverse Transcriptase” (Angewandte Chemie (International Ed. in English), 2020).

Experiments:
[1] = Cytotoxicity: inhibition of CD4+ T-cell (CEM) proliferation; assay type: cell-based; conditions: human, CEM/0 cells (CD4+ T-cells), 50 % cytostatic concentration, mean±SD, n=2-3
[2] = Chemical hydrolysis in aqueous phosphate buffer (PBS, pH 7.3); assay type: physicochemical; conditions: for half-life at 0.92 mM: phosphate buffered saline (PBS), read-out: PBS pH 7.3 t 1/2 (converted); for half-life at 0.92 mM / PBS pH 7.3 t 1/2: aqueous 25 mM phosphate buffer, pH 7.3, 37 °C, removal of AB group, n.h. = no hydrolysis observed through cleavage of AB-mask
Method: γ‐(AB,alkyl)‐NTP prodrugs 6 and γ‐alkyl‐NTPs 7 were incubated in aqueous phosphate buffer (PBS, 25 mM, pH 7.3), or were exposed to pig liver esterase (PLE) in phosphate buffer (PBS) and to human CD4^+ T‐lymphocyte cell extracts to study their stability and the product distribution. The hydrolysis mixtures were analyzed by means of analytical rp‐18‐HPLC. The calculated half‐lives of prodrugs 6 (Table 1, t 1/2) reflect the removal of the bioreversible AB group to yield γ‐alkyl‐NTPs 7. Possible hydrolysis pathways and products are summarized in Scheme 4.
As hydrolysis products, a predominant formation of γ‐alkyl‐d4TTPs 7 and a very small amount of d4TDP […] was detected (approximately 3 %). After consumption of the starting material, no further increase of d4TDP concentration was observed. This supports the hypothesis that only the double‐γ‐esterified d4TTP prodrugs 6 were prone to a bond breakage between the γ‐ and β‐phosphate. […] In contrast to previous studies with TriPPPro‐NTPs 5 containing a second cleavable mask (first generation NTP prodrugs),[ ^23 , ^24 , ^25 ] no d4TTP was detected in these studies using 6 or 7. A side reaction occurred during the studies using compounds 7 that led to the formation of thymine by the cleavage of the glycosidic bond as reported before.[ ^19 , ^22 ]
ProLab 300 from Schott Co.. Thermomixer: Eppendorf Thermomixer 5436 and CellMedia Thermoschüttler basic were used. […]
Chemical hydrolysis of prodrugs of γ-(AB,alkyl) d4TTP 6 as well as the γ-alkyl-NTPs 7,15:
Stock solutions (50mM in DMSO-d6) of compounds 6,7 were prepared. After dilution of 11 µL stock solution with 100 µL milliQ water and 189 µL DMSO-d6 to 1.9mM hydrolysis solutions the reaction was started by addition of 300 µL phosphate buffer saline (PBS, 50mM, pH 7.3). The solution was incubated at 37 C in a thermomixer. An initial aliquot (25 µL) was taken directly and analyzed by analytical HPLC at 265-266 nm. Further aliquots were taken for monitoring the kinetic hydrolysis. The exponential decay curves (pseudo-first order) based on absolute integral values were calculated with commercially available software (OriginPro 9.0G) and yielded the half-lives t1/2 of the prodrugs via one determination. […]
(§1) The calculation of t1/2 was performed analogously to that for the chemical hydrolysis studies.
(§2) Preparation of cell extracts: Human CD4+ T-lymphocyte CEM cells were grown in RPMI-1640-based cell culture medium to a final density of ~3·10^6 cells/ml. Then, cells were centrifuged for 10 min at 1,250 rpm at 4 °C, washed twice with cold PBS, and the pellet was re-suspended at 10^8 cells/ml and sonicated (Hielscher Ultrasound Techn., 100% amplitude, 3·times for 10 sec) to destroy cell integrity. The resulting cell suspension was then centrifuged at 10,000 rpm to remove cell debris, and the supernatant divided in aliquots before being frozen at -80 C and used.
(§3) (1 picture or pasted object on this page, not shown here)

pig liver esterase (PLE) = assay: Enzymatic hydrolysis with pig liver esterase (PLE); assay type: in vitro ADME; conditions: pH 7.3, 37 °C; for half-life at 0.45 mM: pig liver esterase (PLE) in PBS, pig liver esterase in PBS, read-out: t 1/2 with PLE (cleavage of acyloxybenzyl masking unit); for cleavage of the alkyl residue by esterase: PLE in PBS
Method: Next, the enzymatic stability of prodrugs γ‐(AB‐C4,alkyl‐C18)‐d4TTP 6 cz and γ‐(AB‐C15,alkyl‐C4)‐d4TTP 6 ew was examined by incubation with PLE, which is used as a model enzyme for studying the esterase activation of the prodrugs, in PBS, pH 7.3 at 37 °C. […] This proves our initial concept of introducing an enzyme (esterase)‐stable group to the γ‐phosphate unit.
ProLab 300 from Schott Co.. Thermomixer: Eppendorf Thermomixer 5436 and CellMedia Thermoschüttler basic were used.
Fluorescent Imager: ChemiDoc™ MP Imaging System (170-8280) from Bio-Rad Co. was used for primer extension study.
Electrophoresis: Thermo Fisher OwlTM S4S Aluminum-Backed Sequencer System. Power supply: Consort EV2230 Gel […]
Further aliquots were taken for monitoring the kinetic hydrolysis. The exponential decay curves (pseudo-first order) based on absolute integral values were calculated with commercially available software (OriginPro 9.0G) and yielded the half-lives t1/2 of the prodrugs via one determination.
Enzymatic hydrolysis of compounds 6,7 with pig liver esterase (PLE):
10 µL 50 mM DMSO stock solution of compounds 6,7 was diluted to 6.0 mM hydrolysis solution by addition of 31.7 µL DMSO and 41.7 µL ultrapure water. Then 83.3 µl of the 6.0 mM solution was diluted with 125 µL DMSO and 833 µl 50 mM PBS buffer (pH 7.3).
The reaction was started by addition of 62.5 µl of PLE in PBS buffer (3 mg/mL) and the mixture was incubated with 800 rpm at 37 °C in a thermomixer. At different times, aliquots (100 µl) were taken and the reaction was stopped by addition to […] MeOH. The mixture was kept for 5 min on ice followed by centrifugation for 5 min (13000 rpm). The mixture was filtered (Chromafil RC-20/15 MS, […]) and stored in liquid nitrogen. When testing, the samples were defrosted and injection volume with 80 µL was used for HPLC […]
as §1, §2, §3

| half-life at 0.92 mM [2] [h] | half-life at 0.45 mM (pig liver esterase (PLE)) [h] | SMILES | CC50 [1] [µM] | PBS pH 7.3 t 1/2 [2] | cleavage of the alkyl residue by esterase (pig liver esterase (PLE)) | calculated half-life in PBS hydrolysis (decrease by thymine formation, cleavage of the glycosidic bond) ([2]; PBS pH 7.3) |
| --- | --- | --- | --- | --- | --- | --- |
|  |  | Cc1cn(C2C=CC(COP(=O)(O)OP(=O)(O)OP(=O)(O)O)O2)c(=O)[nH]c1=O (centres unmarked) [2 t, d4TTP, reference compound] | > 100 |  |  |  |
| 237 | 0.135 | CCCCCCCCCCCCCCCCCCOP(=O)(OCc1ccc(OC(=O)CCCC)cc1)OP(=O)(O)OP(=O)(O)OCC1C=CC(n2cc(C)c(=O)[nH]c2=O)O1 (centres unmarked) [6 cz, γ‐(AB‐C4,alkyl‐C18)‐d4TTP] | 13 ± 1 |  |  |  |
| 198 | 0.425 | CCCCCCCCCCCCCCCC(=O)Oc1ccc(COP(=O)(OCCCC)OP(=O)(O)OP(=O)(O)OCC2C=CC(n3cc(C)c(=O)[nH]c3=O)O2)cc1 (centres unmarked) [6 ew, γ‐(AB‐C15,alkyl‐C4)‐d4TTP] | 21 ± 2 |  |  |  |
|  |  | CCCCOP(=O)(O)OP(=O)(O)OP(=O)(O)OCC1C=CC(n2cc(C)c(=O)[nH]c2=O)O1 (centres unmarked) [7 w, γ‐C4‐d4TTP] | > 100 | n.h.^[c] | no cleavage of the alkyl residue |  |
|  |  | CCCCCCCCCCCCCCCCCCOP(=O)(O)OP(=O)(O)OP(=O)(O)OCC1C=CC(n2cc(C)c(=O)[nH]c2=O)O1 (centres unmarked) [7 z, γ‐C18‐d4TTP] | 86 ± 3 | n.h.^[c] | no cleavage of the alkyl residue | about 1500 h |
